Data published in ChEMBL document CHEMBL1201862, “PubChem BioAssay data set” (2004).
The source made the active and inactive calls.

Key:
[1] = molecular target: Endoplasmic reticulum aminopeptidase 1 (Homo sapiens, UniProt Q9NZ08); test: ERAP1 aminopeptidase inhibitors, dose response, biochemical, cherry-pick, set 2, plate reader (AID 743314)
[2] = system: HeLa; test: HeLa cell cytotoxicity, dose response, cytotoxicity control, 24 h, cherry-picked samples (AID 504726); format: functional, cell-based; conditions: Homo sapiens;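 also: potency for cytotoxicity as loss of luminescence signal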
[3] = cytotoxicity in OVCAR8 ovarian cancer cells, dose response, PAX8 project, cell-based, plate reader, dry powder samples (AID 743197); format: functional; conditions: OVCAR-8
[4] = molecular target: Paired box protein Pax-8 (Homo sapiens, UniProt Q06710); test: inhibitors of PAX8-driven TPO luciferase reporter, dose response, RMG-I cells, cherry-pick (AID 687027); format: functional, cell-based;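 also: luciferase reporter driven by Pax8 target thyroperoxidase promoter measured by SteadyGlo luminescence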
[5] = molecular target: T1, Protein skinhead-1 (Caenorhabditis elegans, UniProt P34707); format: functional
T1 sequence (P34707 whole entry): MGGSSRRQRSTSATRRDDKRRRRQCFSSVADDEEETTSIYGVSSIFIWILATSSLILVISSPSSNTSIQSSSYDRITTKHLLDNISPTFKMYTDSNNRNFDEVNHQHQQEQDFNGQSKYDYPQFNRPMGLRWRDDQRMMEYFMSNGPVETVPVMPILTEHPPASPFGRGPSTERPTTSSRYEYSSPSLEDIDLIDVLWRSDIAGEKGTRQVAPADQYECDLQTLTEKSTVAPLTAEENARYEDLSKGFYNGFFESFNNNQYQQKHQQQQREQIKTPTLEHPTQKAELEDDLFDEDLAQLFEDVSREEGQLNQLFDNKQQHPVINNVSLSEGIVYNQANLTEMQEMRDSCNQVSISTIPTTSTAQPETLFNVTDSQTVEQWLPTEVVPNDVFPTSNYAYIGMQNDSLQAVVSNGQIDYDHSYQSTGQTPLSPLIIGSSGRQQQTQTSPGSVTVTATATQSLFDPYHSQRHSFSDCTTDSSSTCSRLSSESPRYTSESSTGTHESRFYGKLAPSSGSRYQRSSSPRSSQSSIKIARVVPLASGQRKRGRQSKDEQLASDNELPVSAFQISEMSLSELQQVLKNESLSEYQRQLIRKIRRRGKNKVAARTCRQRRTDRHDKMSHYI

[6] = molecular target: Luciferin 4-monooxygenase (Photinus pyralis, UniProt P08659); test: firefly luciferase enzyme inhibitors, dose response, biochemical, luminescence (AID 1891)
[7] = Luminescence Cell-Based Dose Confirmation HTS to Identify Inhibitors of Platelet Dense Granule Release. [Related pubchem assays: 1663 (Primary HTS), 1678 (Summary of Project)]; format: functional
[8] = Luminescence-based cell-based high throughput dose response assay to identify activators of the DAF-12 from the parasite S. stercoralis (ssDAF-12).; format: functional
[9] = P. falciparum ATP4 D1247Y mutant growth inhibitors, dose response, NITD609-resistant line, SYBR Green, dry powder (AID 1159571); format: functional, cell-based;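 also: parasites synchronized at ring stage by sorbitol before testing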
[10] = P. falciparum 3D7-ScDHODH growth inhibitors, dose response, SYBR Green, dry powder samples (AID 1159570); format: functional, cell-based;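 also: parasite growth measured after 72 hours of compound exposure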
[11] = HepG2 cell cytotoxicity, dose response, cytotoxicity control, plate reader, dry powder samples (AID 1159569); format: functional, cell-based;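 also: inhibitor potency with signal falling toward the positive control level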
[12] = P. falciparum Dd2 growth inhibitors, dose response, SYBR Green, cherry-picked samples (AID 1159567); format: functional, cell-based
[13] = P. falciparum Dd2 growth inhibitors, dose response, SYBR Green, dry powder samples (AID 1159566); format: functional, cell-based;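 also: potency for growth inhibition with lower SYBR green DNA signal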
[14] = molecular target: T2, DNA repair protein RAD52 homolog (Homo sapiens, UniProt P43351); format: functional, biochemical
T2 sequence (P43351 whole entry): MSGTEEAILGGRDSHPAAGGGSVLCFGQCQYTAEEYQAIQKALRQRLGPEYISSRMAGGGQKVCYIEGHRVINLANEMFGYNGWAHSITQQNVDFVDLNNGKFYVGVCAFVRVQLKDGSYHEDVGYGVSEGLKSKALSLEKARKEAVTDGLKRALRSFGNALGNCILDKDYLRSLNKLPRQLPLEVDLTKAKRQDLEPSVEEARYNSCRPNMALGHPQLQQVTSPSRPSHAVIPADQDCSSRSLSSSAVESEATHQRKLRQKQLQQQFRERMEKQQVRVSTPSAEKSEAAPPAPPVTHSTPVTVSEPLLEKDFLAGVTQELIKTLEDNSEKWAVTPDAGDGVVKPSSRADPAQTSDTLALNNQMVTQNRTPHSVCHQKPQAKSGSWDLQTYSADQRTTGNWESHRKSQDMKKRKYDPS

[15] = molecular target: T3, COUP transcription factor 2 (Homo sapiens, UniProt P24468); test: Luminescence-based cell-based high throughput dose response assay to identify inhibitors of COUP-TFII (NR2F2).; format: functional;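 also: HEK293 cells transiently cotransfected with COUP-TFII expression vector and reporter; luciferase reporter luminescence driven by COUP-TFII from the pX2-168 reporter plasmid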
T3 sequence (P24468 whole entry): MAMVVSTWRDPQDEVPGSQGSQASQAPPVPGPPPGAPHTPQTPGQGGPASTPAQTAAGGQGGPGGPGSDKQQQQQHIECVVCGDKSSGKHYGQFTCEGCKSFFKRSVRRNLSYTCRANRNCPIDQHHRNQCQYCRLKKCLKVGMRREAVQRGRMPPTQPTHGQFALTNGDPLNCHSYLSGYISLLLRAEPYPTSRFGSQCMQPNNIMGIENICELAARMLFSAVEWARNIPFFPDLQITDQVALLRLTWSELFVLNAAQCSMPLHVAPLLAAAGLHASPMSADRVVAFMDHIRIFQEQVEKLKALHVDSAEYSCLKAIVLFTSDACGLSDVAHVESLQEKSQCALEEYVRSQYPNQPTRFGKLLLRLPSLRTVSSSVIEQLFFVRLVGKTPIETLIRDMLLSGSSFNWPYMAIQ

[16] = microbe, parasite or virus in culture; format: functional; conditions: Mycobacterium tuberculosis
[17] = C. albicans growth with fluconazole, confirmation, fluorescence, retest (AID 2467); format: functional, cell-based
[18] = system: INS1; test: beta cell apoptosis inhibitors, cytokine rescue, dose response, luminescence, retest (AID 449756); format: functional, cell-based; conditions: Rattus norvegicus;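 also: cell death triggered by IL-1 beta plus TNF-alpha plus IFN-gamma mixture; protective hits raise ATP signal compared with cytokine alone wells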
[19] = NIH-3T3 fibroblast cytotoxicity, dose response, cytotoxicity control, cell-based, fluorescence, Alamar Blue, secondary assay (AID 2327); format: functional;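 also: NIH-3T3 mouse fibroblasts cultured with fluconazole at 8 µg/mL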
[20] = Luminescence Cell-Based Dose Retest to Confirm Inhibitors of Cancer Stem Cells. [Related pubchem assays (depositor defined):AID2717, AID2721]; format: functional; conditions: Homo sapiens
[21] = molecular target: Neurotensin receptor type 1 (Homo sapiens, UniProt P30989); format: functional;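 also: Image-based confirmatory dose-response assay measuring agonist activity at NTR1; NTR1-expressing U2OS osteosarcoma cells imaged for beta-arrestin GFP spot formation; agonist potency where compounds increase beta-arrestin recruitment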
[22] = HEp-2 cell cytotoxicity, dose response, cytotoxicity control for RSV inhibitor project, HTS (AID 2410); format: functional; conditions: human respiratory syncytial virus
[23] = cells
[24] = system: SN12K1; test: cells; format: functional; conditions: Homo sapiens
[25] = control 3'UTR Renilla luciferase suppression, dose response, counter-screen for Shn3 inhibitor project, cell-based, Clone20-Shn3RL, cherry-picked (AID 624133); format: functional
[26] = Shn3 3'UTR reporter inhibitors, dose response, cell-based, Clone20 osteoblasts, firefly luciferase, cherry-picked (AID 624132); format: functional;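 also: firefly luciferase luminescence from reporter carrying the Shn3 3'UTR in osteoblasts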
[27] = system: P388; test: cells; format: functional; conditions: Mus musculus
[28] = system: P388/ADR; test: cells; format: functional; conditions: Mus musculus
[29] = molecular target: T4, Dual specificity protein phosphatase 6 (Rattus norvegicus, UniProt Q64346); test: MKP-3 phosphatase inhibitors, primary screen, biochemical, rat enzyme, in vitro (AID 425)
T4 sequence (Q64346 whole entry): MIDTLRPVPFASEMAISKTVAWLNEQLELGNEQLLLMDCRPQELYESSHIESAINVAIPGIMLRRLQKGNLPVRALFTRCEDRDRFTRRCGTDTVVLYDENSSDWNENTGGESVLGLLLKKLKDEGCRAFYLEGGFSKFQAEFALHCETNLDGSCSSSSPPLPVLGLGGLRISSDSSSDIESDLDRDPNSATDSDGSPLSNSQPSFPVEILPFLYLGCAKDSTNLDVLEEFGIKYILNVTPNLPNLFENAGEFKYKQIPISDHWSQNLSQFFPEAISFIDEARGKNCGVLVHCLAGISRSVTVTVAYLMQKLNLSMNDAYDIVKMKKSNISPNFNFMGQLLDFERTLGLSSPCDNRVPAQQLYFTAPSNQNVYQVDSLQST

[30] = molecular target: T5, Rac GTPase-activating protein 1 (Homo sapiens, UniProt Q9H0H5); test: MgcRacGAP GTPase-activating activity inhibitors, confirmation, biochemical, ADP Hunter fluorescence, primary and confirmatory (AID 624330); format: functional
T5 sequence (Q9H0H5 whole entry): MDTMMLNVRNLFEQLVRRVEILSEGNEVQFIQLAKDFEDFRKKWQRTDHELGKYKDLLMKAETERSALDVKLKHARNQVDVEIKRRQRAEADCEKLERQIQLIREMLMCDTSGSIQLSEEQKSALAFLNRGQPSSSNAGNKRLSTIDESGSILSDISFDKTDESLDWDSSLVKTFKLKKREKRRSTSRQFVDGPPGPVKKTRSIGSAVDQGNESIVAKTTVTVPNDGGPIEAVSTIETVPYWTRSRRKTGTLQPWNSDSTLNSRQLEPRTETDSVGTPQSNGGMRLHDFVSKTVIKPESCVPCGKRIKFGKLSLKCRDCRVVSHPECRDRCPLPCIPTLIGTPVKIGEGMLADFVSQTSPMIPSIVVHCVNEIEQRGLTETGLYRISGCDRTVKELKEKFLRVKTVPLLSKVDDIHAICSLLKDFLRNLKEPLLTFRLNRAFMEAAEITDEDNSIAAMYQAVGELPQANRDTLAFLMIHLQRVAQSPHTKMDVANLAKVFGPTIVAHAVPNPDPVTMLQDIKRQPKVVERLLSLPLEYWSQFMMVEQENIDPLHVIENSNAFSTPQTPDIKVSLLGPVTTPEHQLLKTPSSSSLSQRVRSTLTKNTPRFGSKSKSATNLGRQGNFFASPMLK

[31] = molecular target: Genome polyprotein (dengue virus type 2, UniProt P29990); test: Dengue-2 NS5 methyltransferase inhibitors, primary screen, biochemical, confirmation dose response (AID 588689); format: functional
[32] = system: Vero; test: cells; format: functional, cell-based; conditions: Chlorocebus sabaeus

Chain of Endoplasmic reticulum aminopeptidase 1 (Q9NZ08 whole entry): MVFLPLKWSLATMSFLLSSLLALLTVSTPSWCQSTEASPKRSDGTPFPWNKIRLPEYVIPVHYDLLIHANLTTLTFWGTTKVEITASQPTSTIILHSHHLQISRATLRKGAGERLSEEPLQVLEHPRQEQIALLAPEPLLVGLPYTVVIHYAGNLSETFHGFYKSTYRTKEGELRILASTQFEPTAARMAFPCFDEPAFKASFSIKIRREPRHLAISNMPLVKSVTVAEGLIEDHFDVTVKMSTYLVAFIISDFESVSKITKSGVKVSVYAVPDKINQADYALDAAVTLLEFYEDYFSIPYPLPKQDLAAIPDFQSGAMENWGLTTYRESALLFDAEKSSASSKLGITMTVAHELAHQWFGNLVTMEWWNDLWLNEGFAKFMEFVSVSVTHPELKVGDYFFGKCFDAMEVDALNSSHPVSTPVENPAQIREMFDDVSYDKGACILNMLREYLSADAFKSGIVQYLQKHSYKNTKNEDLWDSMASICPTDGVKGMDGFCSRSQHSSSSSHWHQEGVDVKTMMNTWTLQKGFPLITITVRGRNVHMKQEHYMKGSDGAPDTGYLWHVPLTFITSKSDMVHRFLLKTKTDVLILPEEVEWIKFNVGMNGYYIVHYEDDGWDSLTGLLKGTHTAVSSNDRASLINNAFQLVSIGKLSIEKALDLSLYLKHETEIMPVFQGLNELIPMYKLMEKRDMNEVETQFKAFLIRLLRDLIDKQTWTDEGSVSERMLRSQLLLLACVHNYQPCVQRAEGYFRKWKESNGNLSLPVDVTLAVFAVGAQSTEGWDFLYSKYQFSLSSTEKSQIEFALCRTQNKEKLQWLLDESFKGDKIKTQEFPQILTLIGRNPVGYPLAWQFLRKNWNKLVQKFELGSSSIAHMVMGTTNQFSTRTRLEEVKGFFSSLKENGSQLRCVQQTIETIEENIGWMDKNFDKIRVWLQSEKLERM
Chain of Paired box protein Pax-8 (Q06710 whole entry): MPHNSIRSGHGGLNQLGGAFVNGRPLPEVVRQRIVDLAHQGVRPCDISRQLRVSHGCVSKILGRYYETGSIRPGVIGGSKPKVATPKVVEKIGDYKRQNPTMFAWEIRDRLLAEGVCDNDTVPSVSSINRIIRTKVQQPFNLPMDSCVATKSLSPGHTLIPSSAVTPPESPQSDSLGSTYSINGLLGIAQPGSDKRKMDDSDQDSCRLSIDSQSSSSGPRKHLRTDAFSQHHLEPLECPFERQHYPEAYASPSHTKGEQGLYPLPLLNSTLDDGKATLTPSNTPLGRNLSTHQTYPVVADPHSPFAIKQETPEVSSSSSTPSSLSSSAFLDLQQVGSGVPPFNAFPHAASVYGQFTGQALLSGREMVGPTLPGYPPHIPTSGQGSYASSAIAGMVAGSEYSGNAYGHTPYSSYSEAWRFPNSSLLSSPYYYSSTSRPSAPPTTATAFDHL
Chain of Neurotensin receptor type 1 (P30989 whole entry): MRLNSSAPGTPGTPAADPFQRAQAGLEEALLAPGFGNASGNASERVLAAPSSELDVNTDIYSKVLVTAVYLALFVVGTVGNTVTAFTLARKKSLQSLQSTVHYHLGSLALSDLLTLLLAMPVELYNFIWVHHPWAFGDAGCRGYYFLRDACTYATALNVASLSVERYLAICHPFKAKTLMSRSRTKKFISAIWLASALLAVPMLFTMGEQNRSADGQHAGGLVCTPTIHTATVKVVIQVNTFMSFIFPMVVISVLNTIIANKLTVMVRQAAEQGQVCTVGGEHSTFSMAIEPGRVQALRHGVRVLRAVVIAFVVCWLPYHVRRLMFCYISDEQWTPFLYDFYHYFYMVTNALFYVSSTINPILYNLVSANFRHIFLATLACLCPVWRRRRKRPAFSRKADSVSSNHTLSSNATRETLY
Chain of Genome polyprotein (P29990 2492-3391 limits assumed): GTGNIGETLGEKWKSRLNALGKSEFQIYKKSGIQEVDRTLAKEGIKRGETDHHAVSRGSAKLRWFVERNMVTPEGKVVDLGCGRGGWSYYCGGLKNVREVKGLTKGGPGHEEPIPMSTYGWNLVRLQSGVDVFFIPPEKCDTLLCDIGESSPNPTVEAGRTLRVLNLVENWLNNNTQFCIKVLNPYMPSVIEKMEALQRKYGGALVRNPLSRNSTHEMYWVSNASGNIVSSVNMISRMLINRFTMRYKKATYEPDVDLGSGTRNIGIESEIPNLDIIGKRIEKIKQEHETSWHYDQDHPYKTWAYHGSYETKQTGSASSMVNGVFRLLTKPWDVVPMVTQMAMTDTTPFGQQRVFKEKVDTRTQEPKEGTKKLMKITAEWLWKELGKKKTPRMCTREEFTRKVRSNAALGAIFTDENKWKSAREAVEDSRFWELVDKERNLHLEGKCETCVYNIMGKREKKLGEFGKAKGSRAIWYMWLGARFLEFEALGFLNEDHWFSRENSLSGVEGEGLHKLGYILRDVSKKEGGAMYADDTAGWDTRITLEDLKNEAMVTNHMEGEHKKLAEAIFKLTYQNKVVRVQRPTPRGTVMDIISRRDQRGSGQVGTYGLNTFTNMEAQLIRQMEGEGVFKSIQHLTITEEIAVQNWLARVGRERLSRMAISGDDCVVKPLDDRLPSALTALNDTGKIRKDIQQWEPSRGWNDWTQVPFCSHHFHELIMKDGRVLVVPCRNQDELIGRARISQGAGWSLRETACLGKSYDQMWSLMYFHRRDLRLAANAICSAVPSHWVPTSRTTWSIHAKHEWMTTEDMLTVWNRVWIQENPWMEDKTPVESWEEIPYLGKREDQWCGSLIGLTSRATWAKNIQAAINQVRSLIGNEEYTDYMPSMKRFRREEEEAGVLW
Chain of Luciferin 4-monooxygenase (P08659 whole entry): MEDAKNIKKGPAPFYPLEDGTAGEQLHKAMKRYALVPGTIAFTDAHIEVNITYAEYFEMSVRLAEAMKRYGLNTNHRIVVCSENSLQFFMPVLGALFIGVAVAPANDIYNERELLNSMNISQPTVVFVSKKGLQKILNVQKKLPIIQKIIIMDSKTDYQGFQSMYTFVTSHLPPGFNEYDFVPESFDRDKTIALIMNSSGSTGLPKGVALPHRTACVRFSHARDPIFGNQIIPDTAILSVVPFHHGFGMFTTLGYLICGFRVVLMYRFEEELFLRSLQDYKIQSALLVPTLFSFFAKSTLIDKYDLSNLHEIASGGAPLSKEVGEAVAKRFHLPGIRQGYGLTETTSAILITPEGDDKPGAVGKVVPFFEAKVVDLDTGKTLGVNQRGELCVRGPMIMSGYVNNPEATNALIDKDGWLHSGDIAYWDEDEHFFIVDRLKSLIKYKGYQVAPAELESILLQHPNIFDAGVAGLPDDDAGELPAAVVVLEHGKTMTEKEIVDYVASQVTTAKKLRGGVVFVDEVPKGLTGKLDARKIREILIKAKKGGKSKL

N#Cc1c(N2CCNCC2)nc(-c2ccco2)c2c1CCCC2
AC50 [1]: 6.11 µM (active)

Cc1ccc(/C=C/S(=O)(=O)N2CCC(C(=O)O)CC2)cc1
AC50 [2]: > 350 µM (inactive)

Cc1cc(C(=O)Nc2cccc3c2O[C@H](CN(C)Cc2ccc(Oc4ccccc4)cc2)[C@@H](C)CN([C@H](C)CO)C3=O)n(C)n1
AC50 [3]: > 70 µM (inactive)
AC50 [4]: 13.2 µM (active)

O=C(/C=C/Nc1ccccc1F)c1cccs1
IC50 [5]: 14.7 µM (active)
EC50 [6]: 0.641 µM (active)
EC50 [7]: 4.56 µM (active)
IC50 [8]: > 67.6 µM (inactive)

N#C[C@H]1[C@@H](c2ccc(C#Cc3ccccc3F)cc2)[C@@H](CO)N1C(=O)C1CCC1
AC50 [9]: 1.04 µM (active)
AC50 [10]: 0.779 µM (active)
AC50 [11]: 44.9 µM (active)
AC50 [12]: 1.57 µM (active)
AC50 [13]: 0.613 µM (active)

Oc1ccc(-[n+]2c(-c3ccccc3)cc(-c3ccccc3)cc2-c2ccccc2)cc1.[O-][Cl+3]([O-])([O-])[O-]
AC50 [14]: 9.88 µM (active)
IC50 [15]: 9.1 µM (active)
CC50 [16]: 9.19 µM (active)
EC50 [17]: 0.879 µM (active)
AC50 [18]: 3.38 µM (active)
EC50 [19]: > 160 µM (inactive)

C[C@H](CO)N1C[C@H](C)[C@H](CN(C)C(=O)Nc2cc(F)ccc2F)Oc2cc(/C=C/c3ccccc3)ccc2S1(=O)=O
AC50 [9]: 2.06 µM (active)
AC50 [10]: 2.62 µM (active)
AC50 [11]: 86.7 µM (active)
AC50 [12]: 1.77 µM (active)
AC50 [13]: 0.962 µM (active)

CCCCNc1c(-c2ccc(OC)c(SC(C)CC)c2)nc2ccc(C)cn12 (stereo unspecified)
AC50 [18]: 4.34 µM (active)
AC50 [20]: 6.87 µM (active)
EC50 [21]: 15.4 µM (active)

COc1cccc(CN2CCCCN3[C@H](CO)[C@@H](c4ccc(C#Cc5cccnc5)cc4)[C@@H]3C2)c1
AC50 [9]: 1.21 µM (active)
AC50 [10]: 2.2 µM (active)
AC50 [11]: 22.7 µM (active)
AC50 [12]: 1.34 µM (active)
AC50 [13]: 0.427 µM (active)

CC(=O)N1[C@@H]2c3ccc(/C=C/c4ccccc4)c(=O)n3C[C@H]1[C@H](CO)[C@H]2C(=O)N1CCOCC1
AC50 [1]: 3.12 µM (active)

CN(C)Cc1c(O)ccc2cc(-c3nc4ccccc4n3C)c(=O)oc12
AC50 [1]: 1.56 µM (active)

Cc1ccc(NC(=O)CN(C)C(=O)CSc2nc3ccccc3c(=O)n2Cc2ccco2)cc1
CC50 [22]: 36.7 µM (active)
IC50 [23]: 44.3 µM (active)

COC(=O)C12OCC34C(CC5C(C)=C(O)C(=O)CC5(C)C3C(O)C1O)OC(=O)C(OC(=O)C=C(C)C)C24 (stereo unspecified)
IC50 [5]: 35.7 µM (active)
GI50 [24]: 277 µM (inactive)
IC50 [15]: 0.0223 µM (active)
AC50 [25]: 0.687 µM (active)
AC50 [26]: < 0.26 µM (active)
GI50 [27]: > 500 µM (inactive)
GI50 [28]: > 500 µM (inactive)
AC50 [4]: < 0.26 µM (active)

COc1ccc(Cc2nn3c(-c4cc(OC)c(OC)c(OC)c4)nnc3s2)cc1
IC50 [29]: > 100 µM (not active)

CC1(C)CC(=O)C(C(C2=C(O)CC(C)(C)CC2=O)c2ccc(Br)s2)C(=O)C1 (stereo unspecified)
IC50 [30]: 61.5 µM (active)
IC50 [31]: 21.5 µM (active)
EC50 [21]: 19.6 µM (active)

O=C(CCNC(=O)c1ccc(Br)cc1)NC1CCCc2ccccc21 (stereo unspecified)
IC50 [32]: 9.27 µM (active)
CC50 [22]: 43.7 µM (active)
IC50 [23]: 6.76 µM (active)
